Residues, ends and D or L forms follow the SMILES beside them.
Assays:
[1] = tested on: Chinese Hamster Ovary (CHO) cells (Subclone DG44); assay: Batch cultivation of CHO DG44 cells in glutamine-free PowerCHO-2 CD medium supplemented with glutamine sources: growth and productivity; assay type: cell-based; conditions: for Relative cell-specific productivity: relative titer/IVCD relative to 100% free glutamine; for Relative time-related productivity: relative titer/cultivation time relative to free glutamine; for Relative titer / Cultivation time until 80% viability / Integrated viable cell density (IVCD): total glutamine 8 mM; for Relative titer: relative to titer of 100% free glutamine; for Cultivation time until 80% viability / Integrated viable cell density (IVCD): third passage; for Integrated viable cell density (IVCD): until viability below 80%; for Performance in batch cultivation, in words (titer, productivities): comparison of the supplements of Tables 1 and 2
Procedure: Acetyl-A-Q was mixed with free glutamine or A-Q in molar ratios between 0 and 100%. The mixtures were added to a glutamine-free medium (PowerCHO-2 CD, Lonza AG, Visp, Switzerland) to obtain a total glutamine concentration of 8 mM in the final medium. Growth and productivity were measured using Chinese Hamster Ovary (CHO) cells (Subclone DG44; Life Technologies Cooperation, Carlsbad, USA). Cultivation was continued up to the point where the viability of the culture dropped below 80%. Data from the third passage was used. All titer-related information is given relative to the titer of 100% free glutamine. Accordingly, the relative cell-specific productivity was obtained by first dividing the relative titer by the integrated viable cell density (IVCD), then dividing this number by the titer/IVCD ratio for 100% free glutamine. The relative time-specific productivity was obtained by dividing the relative titer by the cultivation duration until the sampling, then dividing this number by the titer/cultivation time ratio for free glutamine. In a second set of experiments within the same experimental campaign, acetyl-A-Q was mixed with A-Q and tested under the same conditions as described above. The 100% points for acetyl-A-Q as well as the free glutamine reference are identical to the first example.

[2] = tested on: Chinese Hamster Ovary (CHO) cells (Subclone DG44); assay: Fed-batch cultivation of CHO DG44 cells with glutamine sources in basal medium and feed supplement: growth and productivity; assay type: cell-based
Procedure: Free glutamine, A-Q or Acetyl-A-Q were added to a glutamine-free medium (PowerCHO-2 CD, Lonza AG, Visp, Switzerland) to obtain a total glutamine concentration of 8 mM in the final medium.
In addition, these substances as well as a 75% mixture of acetyl-A-Q and A-Q were added to a glutamine-free formulation of a commercial feed supplement (CHOMACS Feed Supplement, Miltenyi Biotech, Germany) to yield a glutamine concentration of 5.5 g/L. Growth and productivity were measured using Chinese Hamster Ovary (CHO) cells (Subclone DG44; Life Technologies Cooperation, Carlsbad, USA).The results are summarized in Table 3. All titer-related information is given relative to the titer obtained by adding free glutamine to basal medium and feed. Accordingly, the relative cell-specific productivity was obtained by first dividing the relative titer by the integrated viable cell density (IVCD), then dividing this number by the titer/IVCD ratio for 100% free glutamine. The relative time-specific productivity was obtained by dividing the relative titer by the cultivation duration until the sampling, then dividing this number by the titer/cultivation time ratio for free glutamine.

[3] = basal medium source/feed source, 8 mM glutamine in medium, 5.5 g/L in feed

What does the source list for `C[C@H](N)C(=O)N[C@@H](CCC(N)=O)C(=O)O` [100% AQ, alanyl-glutamine] (H-Ala-Gln-OH)?
Relative cell-specific productivity ([1]; acetyl-A-Q mixed with A-Q): 75%; Relative time-related productivity ([1]; acetyl-A-Q mixed with A-Q): 102%; Relative titer ([1]; acetyl-A-Q mixed with A-Q): 1.10; Cultivation time until 80% viability ([1]; acetyl-A-Q mixed with A-Q): 13.9; Integrated viable cell density (IVCD) ([1]; acetyl-A-Q mixed with A-Q): 47.1; Performance in batch cultivation, in words (titer, productivities) [1]: performs at a lower level in all relevant categories

Which results are given for `NC(=O)CC[C@H](N)C(=O)O` [100% Q, L-glutamine]?
Relative cell-specific productivity ([1]; acetyl-A-Q mixed with A-Q): 100%; Relative time-related productivity ([1]; acetyl-A-Q mixed with A-Q): 100%; Relative titer ([1]; acetyl-A-Q mixed with A-Q): 1.00; Cultivation time until 80% viability ([1]; acetyl-A-Q mixed with A-Q): 12.9; Integrated viable cell density (IVCD) ([1]; acetyl-A-Q mixed with A-Q): 32.0; Relative cell-specific productivity ([1]; acetyl-A-Q mixed with free Q): 100%; Relative time-related productivity ([1]; acetyl-A-Q mixed with free Q): 100%; Relative titer ([1]; acetyl-A-Q mixed with free Q): 1.00; Cultivation time until 80% viability ([1]; acetyl-A-Q mixed with free Q): 12.9; Integrated viable cell density (IVCD) ([1]; acetyl-A-Q mixed with free Q): 32.0

How did the Relative cell-specific productivity ([1]; acetyl-A-Q mixed with A-Q) turn out when `CC(=O)N[C@@H](C)C(=O)N[C@@H](CCC(N)=O)C(=O)O` [100% acetyl-A-Q, acetyl-A-Q] (Ac-Ala-Gln-OH) was run?
Its Relative cell-specific productivity is 434%.

What about the Relative time-related productivity ([1]; acetyl-A-Q mixed with A-Q) of the same molecule?
The Relative time-related productivity was 99%.

And the Relative titer ([1]; acetyl-A-Q mixed with A-Q)?
The Relative titer was 1.37.

What about the “Cultivation time until 80% viability” value ([1]; acetyl-A-Q mixed with A-Q) of the same molecule?
The value was 17.9.

What about the “Integrated viable cell density (IVCD)” value ([1]; acetyl-A-Q mixed with A-Q) of the same molecule?
Its value is 10.1.

What about the Relative cell-specific productivity ([1]; acetyl-A-Q mixed with free Q) of the same molecule?
The Relative cell-specific productivity was 434%.

What about the Relative time-related productivity ([1]; acetyl-A-Q mixed with free Q) of the same molecule?
The Relative time-related productivity was 99%.

And the Relative titer ([1]; acetyl-A-Q mixed with free Q)?
Its Relative titer is 1.37.

And the “Cultivation time until 80% viability” value ([1]; acetyl-A-Q mixed with free Q)?
The value was 17.9.

What about the “Integrated viable cell density (IVCD)” value ([1]; acetyl-A-Q mixed with free Q) of the same molecule?
Its value is 10.1.

What about the “Performance in batch cultivation, in words (titer, productivities)” value [1] of the same molecule?
The value was “best values for relative titer and cell-specific productivity”.

What about the “Performance in fed-batch cultivation, in words (productivity, cell density, titer)” value ([2]; comparison of the combinations of Table 3) of the same molecule?
Its value is “very high cell-specific productivities, but very low cell density”.

How did the “Cultivation time until 80% viability” value [2, 3] turn out when `CC(=O)N[C@@H](C)C(=O)N[C@@H](CCC(N)=O)C(=O)O` [Acetyl A-Q/acetyl-A-Q] (Ac-Ala-Gln-OH) was run?
Its value is 15.0.

What about the “Integrated viable cell density (IVCD)” value [2, 3] of the same molecule?
Its value is 8.2.

What about the Relative cell-specific productivity ([2]; relative titer/IVCD relative to 100% free glutamine) of the same molecule?
The Relative cell-specific productivity was 145%.

What about the Relative time-related productivity ([2]; relative titer/cultivation time relative to free glutamine) of the same molecule?
Its Relative time-related productivity is 18%.

And the Relative titer ([2]; relative to titer with free glutamine in basal medium and feed)?
Its Relative titer is 0.2.

Reference: US11441119B2, “Culture media comprising n-Acyl-X-glutamine dipeptides” (Evonik Operations GmbH, priority 2017, dated 2022)
